Data reported in patent US7608636B2, “Medicines for treatment and prevention of neurogenic pain” (Hamilton Pharmaceuticals, Inc., priority 2000, dated 2009).

Experiments:
ddY male mice [1] = experiment: von Frey test, administration into spinal subarachnoid space, partial sciatic nerve ligation model; format: in vivo, mouse; conditions: for effect on escape reaction threshold (von Frey): control group subjected only to the dissection, administration into spinal subarachnoid space (10 nmol), compared to physiological saline; for effect on noxious response threshold (von Frey): neuropathic pain model (sciatic nerve bound), administration into spinal subarachnoid space, nefiracetam 1 and 10 nmol, morphine 10 nmol, oxiracetam 10 nmol
Description: 42 of ddY male mice having a body weight of 16 to 18 g were used. […] The mice were anesthetized with pentobarbital, and skin of right hind leg of each mouse was dissected so that sciatic nerve was observed. The half of sciatic nerve fibers was bound with a suture for 24 mice among 42 mice, and only the dissection was performed for the remaining 18 mice (a control group). After the dissection site was sutured, the animals were left for 7 days (Xun Ye et al, Jpn. J. Pharmacol. 2000, Malmberg A B and Basbaum A I, Pain 1998). […] The group of mice of which sciatic nerves were bound was divided into 4 groups, and the threshold was measured twice. The average of the values was used as a control value. Then, mice of each group were each administered with 5 μl (1 nmol) of nefiracetam, 5 μl (10 nmol) of nefiracetam, 5 μl (10 nmol) of morphine or 5 μl of physiological saline into spinal subarachnoid space. After the administration, the threshold was repeatedly measured for 60 minutes with intervals of 10 minutes. The group of mice that were subjected only to the dissection was divided into three groups, and a control value was measured in the same manner as described above. Then, mice of each group were each administered with 5 μl (10 nmol) of nefiracetam, 5 μl (10 nmol) of morphine or 5 μl of physiological saline into spinal subarachnoid space, and the threshold was measured in the same manner as described above.
In the same manner as in Example 2, 5 μl (10 nmol) of oxiracetam was administered and the threshold was measured.
In the von Frey test, the escape reactions caused by mechanical noxious stimulus, which was given for a time period of 60 minutes with intervals of 10 minutes, were evaluated as a threshold (g).

male mouse = conditions: p.o.; cited from earlier work
ddY male mice [2] = experiment: Hargreaves test, diabetic neuropathic pain (streptozotocin mice); format: in vivo, mouse; conditions: mice with diabetes mellitus (streptozotocin); oral administration 3, 10 or 30 mg/kg
Description: 36 of ddY male mice having a body weight of 28 to 30 g were used. In the Hargreaves test, the mice were placed on a glass plate, and hind leg footpads of the mice were stimulated with radiant heat (combination type analgesia meter MODEL 336 (IITC INC., U.S.A.)) every 10 minutes. And the latent time until the beginning of an escape reaction was measured. The mice with diabetes mellitus were prepared by administering streptozotocin (200 mg/kg) dissolved in 0.1 N citrate buffer (pH 4.5) to caudal arteries, and the experiment was performed on the 7th day. […] 24 animals among the 36 animals were determined as mice with diabetes mellitus according to the method described above, and the remaining 12 mice were administered with 0.1 N citrate buffer at caudal arteries and used as a comparative control group (control group). The mice with diabetes mellitus were divided into 4 groups, and the threshold was measured twice. […] Then, mice of each group were each orally administered with 3 mg/kg, 10 mg/kg or 30 mg/kg of nefiracetam or physiological saline (10 ml/kg), and the latent time was repeatedly measured for 60 minutes with intervals of 10 minutes. The control group was divided into two groups, and a control value was measured as described above. […]

ddY male mice [3] = experiment: Peripheral nociception test (bradykinin-induced nociceptive flexion reaction), partial sciatic nerve ligation model; format: in vivo, mouse
Description: 17 of ddY male mice having a body weight of 13 to 15 g were used. The mice were anesthetized with pentobarbital, and skin of right hind leg of each mouse was dissected so that sciatic nerve was observed. The half of sciatic nerve fibers was bound with a suture for 9 mice among 17 mice, and only the dissection was performed for the remaining 8 animals (a control group). After the dissection site was sutured, the animals were left for 7 days (Xun Ye et al, Jpn. J. Pharmacol. 2000, Malmberg A B and Basbaum A I, Pain 1998). […] The group of mice of which sciatic nerves were bound was divided into two groups, and mice of one group were each administered with 5 μl (10 nmol) of nefiracetam and mice of the other group were each administered with 5 μl of physiological saline into spinal subarachnoid space. After the administration, the mice were each subcutaneously administered at a right hind leg footpad with physiological saline at 10 minutes and 15 minutes, 2 μl (0.1 fmol) of bradykinin at 20 minutes and 25 minutes, 2 μl (1 fmol) of bradykinin at 30 minutes and 35 minutes, 2 μl (10 fmol) of bradykinin at 40 minutes and 45 minutes, and 2 μl (100 fmol) of bradykinin at 50 minutes and 55 minutes after the administration. […]
In the mouse peripheral nociception test, nociceptive flexion reactions caused by chemical pain stimulus using bradykinin were evaluated. […]

ddY male mice [4] = experiment: von Frey test, oral administration of nefiracetam, partial sciatic nerve ligation model; format: in vivo, mouse; conditions: oral administration 3, 10 or 30 mg/kg
Description: 36 of ddY male mice having a body weight of 16 to 18 g were used. In the von Frey test, the mice were placed on a mesh, and hind leg footpads of the mice were stimulated with a von Frey filament (digital type von Frey tester MODEL 1601 (IITC INC., U.S.A.)) every 15 minutes, and the threshold values observed at the beginning of an escape reaction were represented in a unit of gram. The mice were anesthetized with pentobarbital, and skin of right hind leg of each mouse was dissected so that sciatic nerve was observed. The half of sciatic nerve fibers was bound with a suture for 24 animals among the 36 animals, and only the dissection was performed for the remaining 12 animals (a sham group). After the dissection site was sutured, experiments were performed on the 7th day (Xun Ye et al, Jpn. J. Pharmacol. 2000, Malmberg A B and Basbaum A I, Pain 1998). […] The group of mice of which sciatic nerves were bound was divided into 4 groups, and the threshold was measured twice. […] Then, mice of each group were each orally administered with 3 mg/kg, 10 mg/kg or 30 mg/kg of nefiracetam or physiological saline (10 ml/kg), and the threshold was repeatedly measured for 90 minutes with intervals of 15 minutes. The mice of the control group (the sham group) that were subjected only to the dissection were divided into two groups, and a control value was measured in the same manner as described above. […]

CN1CC[C@]23c4c5ccc(O)c4O[C@H]2[C@@H](O)C=C[C@H]3[C@H]1C5 [morphine, reference compound]
effect on escape reaction threshold (von Frey) (ddY male mice [1]): did not give significant effect | effect on noxious response threshold (von Frey) (ddY male mice [1]): no significant effect

Cc1cccc(C)c1NC(=O)CN1CCCC1=O [nefiracetam, N-(2,6-dimethylphenyl)-2-(2-oxo-1-pyrrolidinyl)acetamide]
effect on escape reaction threshold (von Frey) (ddY male mice [1]): did not give significant effect | effect on noxious response threshold (von Frey) (ddY male mice [1]): analgesic effect in a dose-dependent manner | Acute toxicity (male mouse): 2,005 mg/kg | suppression effect on diabetic neuropathic pain (Hargreaves latent time) (ddY male mice [2]): suppression effect | effect on the reaction caused by bradykinin administered to footpad (ddY male mice [3]; control group subjected only to the dissection, without nervous disturbance, administered into spinal subarachnoid space, compared to physiological saline): not significant | bradykinin sensitive response (analgesic effect) (ddY male mice [3]; neuropathic pain model (sciatic nerve bound), administration into spinal subarachnoid space, bradykinin 0.1 to 100 fmol): completely suppressed | suppressing effect on neuropathic pain by oral administration (von Frey) (ddY male mice [4]): suppressing effect on neuropathic pain

NC(=O)CN1CC(O)CC1=O (stereo not shown) [oxiracetam, 4-hydroxy-2-oxo-1-pyrrolidineacetamide]
effect on noxious response threshold (von Frey) (ddY male mice [1]): analgesic effect substantially equivalent to that of nefiracetam
